Patent US20020034767A1, “Compositions and methods for modulating the activity of G protein-coupled receptor kinases GRK5 and GRK6” (priority 1993, published 2002)
pIC50: −log10 of the molar value. Several values for one entry are separate records, joined by “and”; a condition that tells them apart may be missing. Equal entries are not always repeated. Each block holds one compound with its values, some of them ahead of it.

Key:
GRK6 = target: T1, GRK6 (Homo sapiens, UniProt P43250); assay: GRK6 phosphorylation of rhodopsin; assay type: biochemical; settings: for effect on GRK6 activity: in the presence of Mg2+; for pIC50: purified GRK6, read-out: IC50 for inhibiting GRK6; for fold less effective as inhibitor of GRK6 compared to GRK5: GRK6 versus GRK5
T1 construct: The presence of the full length GRK6 cDNA within the genome of the recombinant baculovirus was confirmed; made in house; host or cells: Sf9 insect cells (baculovirus, pBacPAK1)

GRK5 [1] = target: T2, GRK5 (Homo sapiens, UniProt P34947); assay: GRK5 phosphorylation of rhodopsin (receptor phosphorylation); assay type: biochemical; settings: purified GRK5; read-out: IC50 for inhibiting GRK5
T2 construct: The GRK5 ORF was initially excised by restriction digestion of the full length clone pGRK5 using NaeI and SmaI; made in house; host or cells: Sf9 insect cells (baculovirus, pBacPAK1)

GRK5 [2] = target: T2, GRK5; assay: GRK5 autophosphorylation; assay type: biochemical
GRK5 [3] = target: T2, GRK5; assay: GRK5 phosphorylation of rhodopsin (receptor phosphorylation); assay type: biochemical; settings: for reversal of heparin inhibition of GRK5: in presence of heparin
Experimental: Rod outer segments (ROS) were prepared in accordance with methods known to those skilled in the art. Rhodopsin kinase free membranes were prepared by suspending the ROS in 50 mM Tris-HCl, pH 8.0, 5 mM EDTA, 5M urea and sonicating. The urea treated ROS were washed several times by centrifugation and resuspended in 50 mM Tris-HCl, pH 7.5 at a protein concentration of ˜1 mg/ml. Phosphorylation reactions contained 5 μg of total protein from the Sf9 cell supernatants expressing either GRK5 or βARK, urea treated ROS (80 pmol rhodopsin), 20 mM Tris-HCl, pH 7.5, 2 mM EDTA, 6 mM MgCl2 and 0.1 mM [γ-^32P] ATP, in a total reaction volume of 30 μl. When the effect of G protein βγ subunits was assessed, the reactions also contained 0.25 mM dithiothreitol, 0.01% Lubrol and 62 mM NaCl with or without 100 nM βγ subunits. Reactions were incubated at 30° C. for 15 minutes and then stopped by the addition of 50 μl of SDS sample buffer. Samples were electrophoresed on a 10% homogeneous SDS polyacrylamide gel by the method of Laemmli which is well known to those skilled in the art. Gels were dried and autoradiographed at room temperature for 30-120 minutes. The rhodopsin bands in the gel were then cut and counted in a scintillation counter.

casein kinase II = casein kinase II (Homo sapiens, UniProt P67870+P68400); settings: cited from earlier work
rhodopsin kinase = target: T3, rhodopsin kinase (Bos taurus, UniProt P28327); settings: cited from earlier work
T3 sequence (P28327 1-561): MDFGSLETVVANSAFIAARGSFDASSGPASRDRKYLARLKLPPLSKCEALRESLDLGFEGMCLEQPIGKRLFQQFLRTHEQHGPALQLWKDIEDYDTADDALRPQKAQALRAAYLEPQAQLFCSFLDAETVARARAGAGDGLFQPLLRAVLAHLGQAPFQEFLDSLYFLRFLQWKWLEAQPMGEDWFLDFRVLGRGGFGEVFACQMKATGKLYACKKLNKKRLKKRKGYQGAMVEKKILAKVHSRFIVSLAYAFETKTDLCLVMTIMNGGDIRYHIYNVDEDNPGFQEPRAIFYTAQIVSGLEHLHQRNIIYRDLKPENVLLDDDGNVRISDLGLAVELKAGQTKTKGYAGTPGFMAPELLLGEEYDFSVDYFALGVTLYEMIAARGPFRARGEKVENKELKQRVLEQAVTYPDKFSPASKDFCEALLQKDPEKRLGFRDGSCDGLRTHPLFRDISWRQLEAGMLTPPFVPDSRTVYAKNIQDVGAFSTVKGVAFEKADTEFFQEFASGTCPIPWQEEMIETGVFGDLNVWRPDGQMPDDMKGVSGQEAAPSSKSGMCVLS

βARK = target: T4, βARK (Bos taurus, UniProt P21146); settings: cited from earlier work
T4 sequence (P21146 1-689): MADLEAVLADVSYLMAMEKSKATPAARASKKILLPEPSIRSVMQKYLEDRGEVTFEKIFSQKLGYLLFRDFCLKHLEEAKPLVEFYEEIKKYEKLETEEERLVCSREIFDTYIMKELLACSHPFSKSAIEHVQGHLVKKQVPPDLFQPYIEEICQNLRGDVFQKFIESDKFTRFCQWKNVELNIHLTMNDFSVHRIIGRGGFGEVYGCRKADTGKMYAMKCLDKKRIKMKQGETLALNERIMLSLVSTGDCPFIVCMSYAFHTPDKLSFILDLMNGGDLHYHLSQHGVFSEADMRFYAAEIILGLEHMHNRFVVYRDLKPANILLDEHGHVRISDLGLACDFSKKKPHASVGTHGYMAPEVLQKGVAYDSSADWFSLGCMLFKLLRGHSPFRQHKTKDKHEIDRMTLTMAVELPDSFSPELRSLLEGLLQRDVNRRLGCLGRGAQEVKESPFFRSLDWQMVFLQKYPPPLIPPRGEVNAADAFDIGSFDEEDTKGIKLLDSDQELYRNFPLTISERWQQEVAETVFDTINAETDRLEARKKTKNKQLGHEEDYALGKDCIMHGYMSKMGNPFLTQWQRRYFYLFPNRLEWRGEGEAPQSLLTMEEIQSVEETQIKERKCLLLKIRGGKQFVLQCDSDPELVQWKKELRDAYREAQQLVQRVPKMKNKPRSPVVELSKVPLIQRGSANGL

T1 sequence (P43250 whole entry): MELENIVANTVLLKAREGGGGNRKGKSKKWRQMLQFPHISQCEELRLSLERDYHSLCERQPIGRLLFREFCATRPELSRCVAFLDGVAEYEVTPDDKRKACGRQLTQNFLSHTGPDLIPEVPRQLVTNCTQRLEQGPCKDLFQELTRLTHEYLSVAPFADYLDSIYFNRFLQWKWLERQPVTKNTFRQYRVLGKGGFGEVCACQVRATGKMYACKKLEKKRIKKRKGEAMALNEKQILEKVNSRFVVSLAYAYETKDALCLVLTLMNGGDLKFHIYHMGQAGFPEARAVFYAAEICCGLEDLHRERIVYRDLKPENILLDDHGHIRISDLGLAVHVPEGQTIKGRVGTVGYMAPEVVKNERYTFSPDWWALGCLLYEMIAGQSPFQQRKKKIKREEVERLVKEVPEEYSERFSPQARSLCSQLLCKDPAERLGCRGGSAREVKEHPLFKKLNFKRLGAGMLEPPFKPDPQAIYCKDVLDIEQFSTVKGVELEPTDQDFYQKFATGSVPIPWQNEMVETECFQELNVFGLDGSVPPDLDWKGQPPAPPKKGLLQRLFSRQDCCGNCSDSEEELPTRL
T2 sequence (P34947 whole entry): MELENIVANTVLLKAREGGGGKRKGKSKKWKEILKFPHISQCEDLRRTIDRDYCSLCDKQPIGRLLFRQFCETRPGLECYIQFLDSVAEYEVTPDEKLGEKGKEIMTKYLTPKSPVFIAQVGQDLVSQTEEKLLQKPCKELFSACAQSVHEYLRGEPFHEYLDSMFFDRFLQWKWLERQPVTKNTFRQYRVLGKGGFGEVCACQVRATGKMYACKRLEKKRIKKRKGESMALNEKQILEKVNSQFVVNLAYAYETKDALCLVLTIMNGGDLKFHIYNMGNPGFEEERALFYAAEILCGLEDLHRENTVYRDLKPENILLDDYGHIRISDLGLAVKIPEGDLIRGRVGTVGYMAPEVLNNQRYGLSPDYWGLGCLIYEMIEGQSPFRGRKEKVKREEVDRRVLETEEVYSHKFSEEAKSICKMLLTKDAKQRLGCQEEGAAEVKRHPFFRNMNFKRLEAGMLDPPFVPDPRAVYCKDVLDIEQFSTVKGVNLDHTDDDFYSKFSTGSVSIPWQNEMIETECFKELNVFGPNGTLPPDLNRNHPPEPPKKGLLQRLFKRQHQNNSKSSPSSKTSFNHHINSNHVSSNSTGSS
Sequence of casein kinase II (P68400 whole entry): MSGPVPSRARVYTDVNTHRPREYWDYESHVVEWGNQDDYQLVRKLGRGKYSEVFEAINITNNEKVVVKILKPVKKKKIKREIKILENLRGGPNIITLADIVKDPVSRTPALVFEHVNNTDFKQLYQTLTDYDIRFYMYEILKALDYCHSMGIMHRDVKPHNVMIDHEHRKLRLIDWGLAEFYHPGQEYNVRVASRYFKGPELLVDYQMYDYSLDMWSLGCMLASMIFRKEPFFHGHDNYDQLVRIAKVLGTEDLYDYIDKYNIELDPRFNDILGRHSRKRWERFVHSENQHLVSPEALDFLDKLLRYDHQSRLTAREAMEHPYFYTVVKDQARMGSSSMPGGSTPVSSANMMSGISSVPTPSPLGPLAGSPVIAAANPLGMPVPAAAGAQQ
Sequence of casein kinase II (P67870 whole entry): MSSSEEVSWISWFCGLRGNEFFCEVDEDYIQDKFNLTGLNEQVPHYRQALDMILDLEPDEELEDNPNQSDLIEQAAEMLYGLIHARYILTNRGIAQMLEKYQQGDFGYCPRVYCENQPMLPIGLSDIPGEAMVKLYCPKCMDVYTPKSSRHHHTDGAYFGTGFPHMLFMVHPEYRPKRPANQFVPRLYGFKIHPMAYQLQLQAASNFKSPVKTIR

Compound: Cl [NaCl]
pIC50 (GRK5 [2]): ~1.15
pIC50 (GRK5 [3]; IC50 for inhibiting GRK5 (receptor phosphorylation), purified GRK5): ~1.22 and 1.24

Compound: [Zn+2] [Zn^2+]
effect on GRK6 activity (GRK6): inhibited

Compound: NCCCCNCCCN [spermidine]
enhancement of GRK6 activity (GRK6; optimal concentration range 0.1 to 0.5 mM): ~1.4 fold
effect on casein kinase (casein kinase II): activators
effect on rhodopsin kinase (rhodopsin kinase): activators
inhibition of βARK (βARK): weak inhibitors
reversal of heparin inhibition of GRK5 (GRK5 [3]): effectively reversed
activation of GRK5 (GRK5 [3]; optimal concentrations): ~1.5 fold

Compound: dextran sulfate
pIC50 (GRK6): 8.15
pIC50 (GRK5 [1]): ~9.22

Compound: polyaspartic acid
fold less effective as inhibitor of GRK6 compared to GRK5 (GRK6): ~6 fold
pIC50 (GRK6): 6.31

Compound: polylysine
increase in GRK6 phosphorylation (GRK6; optimal range 1 to 10 μM): ~2.7 fold
effect on casein kinase (casein kinase II): activators
effect on rhodopsin kinase (rhodopsin kinase): activators
inhibition of βARK (βARK): weak inhibitors
reversal of heparin inhibition of GRK5 (GRK5 [3]): effectively reversed
activation of GRK5 (GRK5 [3]; optimal concentration of 10 μM): ~2.6 fold

The next lines start with results.

effect on GRK6 activity (GRK6): inhibited
Compound: [Ca+2] [Ca^2+]

pIC50 (GRK5 [1]): ~3.77
Compound: CC1CNCCN1S(=O)(=O)c1cccc2cnccc12 (stereo not drawn) [H-7]

elevation of GRK6 phosphorylation of rhodopsin (GRK6; optimal concentration range 0.01 to 0.1 mM): ~1.5 fold
reversal of heparin inhibition of GRK5 (GRK5 [3]): effectively reversed
activation of GRK5 (GRK5 [3]; optimal concentrations): ~1.8 fold
Compound: NCCCNCCCCNCCCN [spermine]
effect on casein kinase (casein kinase II): activators
effect on rhodopsin kinase (rhodopsin kinase): activators
inhibition of βARK (βARK): weak inhibitors

inhibition of GRK5 autophosphorylation (GRK5 [2]; concentration of 10 μM): does not inhibit
pIC50 (GRK6): ~7.82
pIC50 (GRK5 [1]): ~9.00
Compound: heparin
pIC50 (rhodopsin kinase): ~3.70

fold less effective as inhibitor of GRK6 compared to GRK5 (GRK6): ~16 fold
pIC50 (GRK6): 6.40
Compound: polyglutamic acid
